In ChEMBL document CHEMBL1158205, “Antineoplastic agents. 340. Isolation and structural elucidation of bryostatins 16-18” (J Nat Prod, 1996) one finds Ki, GI50 and EC50 data, which are given here for 4 compounds.

Assay [1] addresses Protein kinase C alpha type (Homo sapiens, UniProt P17252). The assay is described as follows: Displacement of [3H]PDBu form PKCalpha.
A further assay concerns SK-MEL-5. The assay is described as follows: Growth inhibition of human SK-MEL-5 cells by NCI-method. The class given is functional.
The test system of a further assay is NCI-H460. The assay is described as follows: Growth inhibition of human NCI-H460 cells by NCI-method. The class given is functional.
A further assay concerns A498. The assay is described as follows: Growth inhibition of human A498 cells by NCI-method. It counts as functional.
The test system of a further assay is OVCAR-3. The assay is described as follows: Growth inhibition of human OVCAR-3 cells by NCI-method. The class given is functional.
Another assay concerns KM-20L2. The assay is described as follows: Growth inhibition of human KM20L2 cells by NCI-method. The class given is functional.
Another assay relates to SF-295. The assay is described as follows: Growth inhibition of human SF295 cells by NCI-method. It counts as functional.
In another assay the test system is P388. The assay is described as follows: Cytotoxicity against mouse P388 cells. The class given is functional. Conditions: read-out: ED50 (the source's name).

pKi: −log10 of the molar value. Converted amounts (≈) assume the structure as drawn.

For the compound `COC(=O)/C=C1/C[C@H]2C[C@]3(O)O[C@H](C[C@@H](O)CC(=O)O[C@@H]([C@@H](C)O)C[C@@H]4C/C(=C\C(=O)OC)C[C@@](O)(O4)C(C)(C)/C=C/[C@@H](C1)O2)C[C@H](OC(=O)C(C)(C)C)C3(C)C` [BRYOSTATIN 10], in assay [1], the pKi was 8.81.
In the case of `COC(=O)/C=C1/C[C@H]2C[C@]3(O)O[C@H](C[C@@H](O)CC(=O)O[C@@H]([C@@H](C)O)C[C@@H]4C/C(=C\C(=O)OC)C=C(O4)C(C)(C)/C=C/[C@@H](C1)O2)C[C@H](OC(=O)C(C)(C)C)C3(C)C` [BRYOSTATIN 16], the GI50 with SK-MEL-5 was determined as 1.2 µg/mL (≈ 1.52 µM); with NCI-H460 it was 0.019 µg/mL (≈ 0.024 µM); in the assay with A498, 1.9 µg/mL (≈ 2.4 µM); in the assay on OVCAR-3 it was 1.9 µg/mL (≈ 2.4 µM); with KM-20L2, 2.2 µg/mL (≈ 2.78 µM); in the assay with SF-295, 1.4 µg/mL (≈ 1.77 µM). For the same compound, the pKi in assay [1] was 6.93. Moreover, the EC50 in the assay on P388 was found to be 9.3 ng/mL (≈ 0.0118 µM).
For the compound `COC(=O)/C=C1\C=C2O[C@@H](C1)C[C@H]([C@@H](C)O)OC(=O)C[C@H](O)C[C@@H]1C[C@H](OC(=O)C(C)(C)C)C(C)(C)[C@](O)(C[C@@H]3C/C(=C/C(=O)OC)C[C@H](/C=C/C2(C)C)O3)O1` [BRYOSTATIN 17], the GI50 in the assay on SK-MEL-5, in the assay with NCI-H460, in the assay with A498, with OVCAR-3, with KM-20L2 and in the assay with SF-295 was 0.16 µg/mL (≈ 0.202 µM) throughout. Further, the pKi in assay [1] is 6.73. Moreover, the EC50 with P388 worked out at 19 ng/mL (≈ 0.024 µM).
Take `COC(=O)/C=C1/C[C@H]2C[C@]3(O)O[C@H](C[C@@H](O)CC(=O)O[C@@H]([C@@H](C)O)C[C@@H]4C/C(=C/C(=O)OC)C[C@@](O)(O4)C(C)(C)/C=C/[C@@H](C1)O2)C[C@H](OC(=O)C(C)(C)C)C3(C)C` [BRYOSTATIN 18]: the GI50 in the assay on SK-MEL-5, with NCI-H460, with A498, in the assay with OVCAR-3, in the assay with KM-20L2 and with SF-295 was 0.42 µg/mL (≈ 0.519 µM) throughout. Moreover, the pKi in assay [1] is 8.32. Moreover, the EC50 in the assay on P388 turned out to be 3.3 ng/mL (≈ 0.00408 µM).
